For one test, the system named is Ovarian Cancer (OV). Particulars: paclitaxel as first line; cited from earlier work.
In test [1] the test system is Uterine Corpus Endometrial carcinoma (UCEC). Particulars: of 83 UCEC patients, paclitaxel as first line; cited from earlier work.
For test [2], the system named is HeyA8 cells. Kind of test: Bcl2 gradient assay: cell sensitivity to paclitaxel with increasing wt-BCL2-GFP doses. The class given is cell-based. Particulars: HeyA8 cells transfected with increased concentrations of BCL2 mRNA (5 doses of wt-BCL2-GFP); viability by FACS 24 hours after paclitaxel. The procedure: (§1) Propidium iodide (PI) was added to the cell suspension at a concentration of 1 μg/ml. Sorting and analyses were carried out in a Gallios flow cytometer cell sorter collecting 10,000 events. Dead cells were excluded by gating on forward and side scatter and by eliminating PI-positive events.
(§2) To examine the effect of rs1801018 variant on cells sensitivity to paclitaxel, GFP-empty vector control or one of three GFP-BCL2 variants (wild-type, rs1801018 variant or random) were over-expressed in cells, which then were tested with paclitaxel. Cells were incubated with increasing concentrations of paclitaxel as indicated in methods and in FIG. 3. […] To study the relationship between resistance to paclitaxel and BCL2 gene copy numbers, a Bcl2 gradient assay was performed. The assay is designed to examine cell sensitivity to paclitaxel in the presence of increasing levels of BCL2 copies. HeyA8 cells were transfected with 5 different doses of wt-BCL2-GFP. 24 hours post transfection cells were treated with paclitaxel, and 24 hours post incubation cells viability was measured by FACS.

The subject of test [3] is HeyA8 cells. Briefly: Sensitivity of transfected HeyA8 cells to paclitaxel (cell viability, PI/FACS). The class given is cell-based. The procedure: HeyA8 ovarian cell lines were grown at 37° C. with 5% CO2 in MEM-EAGLE medium supplement with 2 mM L-glutamine, 1.5 g/L sodium bicarbonate, 4.5 g/L glucose, 10 mM HEPES, 1.0 mM sodium pyruvate and 10% fetal bovine serum (FBS).
as §1
Cells expressing GFP-empty vector or one of three types of GFP-BCL2 variants were measured for their sensitivity to paclitaxel. Following 24 hours of transfection with one of the indicated plasmids, cells were introduced to 100 or 200 nM of paclitaxel for 24 hours incubation.
as §2

Turning to `CC(=O)O[C@H]1C(=O)[C@@]2(C)[C@H]([C@H](OC(=O)c3ccccc3)[C@]3(O)C[C@H](OC(=O)[C@H](O)[C@@H](NC(=O)c4ccccc4)c4ccccc4)C(C)=C1C3(C)C)[C@]1(OC(C)=O)CO[C@@H]1C[C@@H]2O` [paclitaxel, (2α,4α,5β,7β,10β,13α)-4,10-Bis(acetyloxy)-13-{[(2R,3S)-3-(benzoylamino)-2-hydroxy-3-phenylpropanoyl]oxy}-1,7-dihydroxy-9-oxo-5,20-epoxytax-11-en-2-yl benzoate], in the test on Ovarian Cancer (OV), the “patients who required additional lines of diverse chemotherapies” value is 226 patients and the “patients who responded well to the first line of treatment” value is listed as 144 patients. Besides, in test [1], the “patients who require multiple lines” value was 20 patients and the “patients who responded to the first line of treatment” value is given as 63 patients. Moreover, the “relative cell death in response to paclitaxel” value with HeyA8 cells [2] is “decrease in relative cell death”. In addition, in the test on HeyA8 cells [3] (HeyA8 cells harboring GFP-empty vector, 100 or 200 nM paclitaxel, 24 hours), the sensitivity to paclitaxel entry is “high sensitivity”. For the same compound, in the test with HeyA8 cells [3] (HeyA8 cells transfected with rs1801018 variant (BCL2-Mut), p-value <0.05), the “cell viability in response to paclitaxel” value is reported as “significantly improved”. Further, in the test with HeyA8 cells [3] (HeyA8 cells transfected with wild-type or random BCL2, 100 or 200 nM paclitaxel, 24 hours), the “cell death / cell viability in response to paclitaxel” value is reported as “reduced cell death”.

These data come from patent US20170152569A1, “POLYMORPHISM IN THE BCL2 GENE DETERMINES RESPONSE TO CHEMOTHERAPY” (HIDENSEQ, priority 2014, published 2017).
